Experiments:
Format in all cases: in vivo, rat
[1] = tested on: formalin-induced pain behavior; test: formalin-induced pain behavior (flinching) after intrathecal pre-administration of peptide
Experimental: In Example 5, 10^−3M (10 nmol/10 μl) D-EKC/D (3), (5), or (7), Spantide I, or saline (10 μl) was administered to intrathecally catheterized rats via catheters and then 4 hours later, 50 μl of 2% formalin was administered subcutaneously to hind paws of rats. The number of flinching (pain behavior) was determined for 60 minutes after formalin administration, so that the degree of pain could be evaluated. During the 10-minute period after formalin administration (referred to as phase I), pain behavior was measured once every 2 minutes (1 minute per measurement). During the period from 10 minutes to 60 minutes after formalin administration (referred to as phase II), pain behavior was measured once every 5 minutes (1 minute per measurement), so that the degree of pain could be evaluated. During phase I, behavior (phasic pain) resulting from chemical stimulation accompanying formalin administration was observed. During phase II, tonic pain following the phasic pain was observed.
The horizontal axis indicates time (minutes) after formalin administration and the vertical axis indicates the measured number of pain behavior per minute.

[2] = tested on: SP-induced thermal hyperalgesia; test: SP-induced thermal hyperalgesia (withdrawal latency) after intrathecal pre-administration of peptide; details: 10^-3M (10 nmol/10 μl) peptide intrathecal, FIG. 7
Description: In this test, the effects of intrathecal pre-administration with D-EKC/D (1), (2), and (3) on the induction of thermal hyperalgesia following intrathecal administration of SP were confirmed using as an index thermal hyperalgesia, which is one type of pain-related behavior. The effects can be evaluated based on withdrawal latency period, which is the time required for withdrawal response to take place after application of noxious thermal stimulation to plantar using infrared rays.
In Example 4, 10^−3M (10 nmol/10 μl) D-EKC/D (1), (2), or (3) was administered to intrathecally catheterized rats via catheters, intrathecal administration of 10^−6M (10 pmol/10 μl) SP was performed at 4 hours and at 8 hours after administration of D-EKC/D, the presence or the absence of hyperalgesia following intrathecal administration of SP was evaluated based on the time (latency period) required for withdrawal response to take place, the latency period following SP administration in rats pretreated with D-EKC/D and the latency period resulting from administration of SP alone were compared, and thus the effects of preadministration of D-EKC/D (1), (2), and (3) were evaluated.

[3] = tested on: carrageenan-induced inflammation; test: carrageenan-induced increase in paw size after intrathecal pre-administration of peptide
Experimental: In Example 6, 10^−3M (10 nmol/10 μl) D-EKC/D (3), (5), or (7), Spantide I, or saline (10 μl) was administered to intrathecally catheterized rats via catheters. Four hours later, 100 μl of 2% carrageenan (2 mg/100 μl) was subcutaneously administered to rat plantar.
Paw size was measured with time for 60 minutes after carrageenan administration. The paw size (control) before carrageenan administration was designated as the basal level, and the increases in paw size were then calculated.

[4] = paw size after subcutaneous administration of peptide alone to plantar; details: 10^-3M D-EKC/D (3) subcutaneous to plantar; for paw plantar size after administration of peptide alone: FIG. 10A
Experimental: 100 μlof saline or 10^−3M (100 nmol/100 D-EKC/D (3) was subcutaneously administered to rat plantar. Paw size was measured with time for 60 minutes after administration. Paw size (control) before administration was designated as the basal level, and increases in paw size were then calculated.

[5] = tested on: substance P-induced scratching behavior; test: substance P-induced scratching behavior after intrathecal pre-administration of test peptide
Experimental: In Example 1, 10^−3M (10 nmol/10 μl) EKC/D or D-EKC/D (1), (2) or (3) was administered to intrathecally catheterized rats via catheters. After the predetermined time periods denoted on the horizontal axis in FIG. 1, the numbers of scratching events (scratching behavior) induced by intrathecal administration of 10^−3M (10 nmol/10 μl) substance P (hereafter, referred to as “SP”) were determined. Here, the expression “10^−3M (10 nmol/10 μl) EKC/D or D-EKC/D (1), (2), or (3) was administered” refers to a situation in which 10 μl in total of a solution (that is, 10^−3M solution) containing 10 nmol of EKC/D or D-EKC/D (1), (2), or (3) was all administered. The expression, “ . . . administration of 10^−3M substance P (10 nmol/10 μl)” refers to a situation in which 10 μl in total of a solution (that is, 10^−3M solution) containing 10 nmol of the substance was all administered. The same similarly applies below.
Meanwhile, saline (10 μl) was intrathecally administered to intrathecally catheterized rats via catheters and then, after 30 minutes, 10^−3M SP (10 nmol/10 μl) was intrathecally administered to the rats. The number of the thus induced scratching events was determined to be the number of scratching events in the control group. The control group is denoted with saline-4-SP in FIG. 1.
The vertical axis of the graph in FIG. 1 indicates changes in the numbers of scratching events (represented by relative values) due to administration of 10^−3M EKC/D or D-EKC/D (1), (2), or (3) when the number of scratching events (of untreated rats in a control group) induced by intrathecal administration of 10^−3M substance P was determined to be 100%. Meanwhile, the horizontal axis indicates the intervals between the administration of EKC/D, D-EKC/D (1), (2), or (3) and 10^−3M substance P. […]
The test was conducted with procedures similar to those in Example 1, except for 4 hours of interval between the administration of each test peptide and the administration of substance P. The concentration of each test peptide and that of substance P for administration were determined to be 10^−3M (10 nmol/10 μl), similarly to Example 1. The number of scratching events in the control group was determined with procedures similar to those in Example 1, such that substance P was administered at 30 minutes after administration of saline (10 μl) and then the number was determined.

## Ala-Tyr-Gln-Leu-Glu-His-Thr-Phe-Gln-DTrp-Leu-Leu-NH2 (AYQLEHTFQXLL; HELM PEPTIDE1{A.Y.Q.L.E.H.T.F.Q.[dW].L.L.[am]}$$$$V2.0; N-terminus assumed; SMILES CC(C)C[C@H](NC(=O)[C@H](CC(C)C)NC(=O)[C@@H](Cc1c[nH]c2ccccc12)NC(=O)[C@H](CCC(N)=O)NC(=O)[C@H](Cc1ccccc1)NC(=O)[C@@H](NC(=O)[C@H](Cc1c[nH]cn1)NC(=O)[C@H](CCC(=O)O)NC(=O)[C@H](CC(C)C)NC(=O)[C@H](CCC(N)=O)NC(=O)[C@H](Cc1ccc(O)cc1)NC(=O)[C@H](C)N)[C@@H](C)O)C(N)=O) [D-EKC/D (3)]
[1]; 10^-3M (10 nmol/10 μl) peptide intrathecal, 2% formalin 4 hours later, 0-10 minutes after formalin
  numbers of pain behavior during phase I: significantly decreased
[1]; 10^-3M (10 nmol/10 μl) peptide intrathecal, 2% formalin 4 hours later, 10-60 minutes after formalin
  numbers of pain behavior during phase II: significantly decreased
[1]; 10^-3M intrathecal, formalin 4 hours later
  suppressing effects on formalin-induced pain behavior compared with Spantide I: sustained longer compared with the effects of Spantide I
[2]; 10^-6M SP 4 hours later, saline about 20 seconds, SP about 13 seconds
  effect on latency period following administration of SP: significantly attenuated
[2]; 10^-6M SP 8 hours later
  effect on latency period following administration of SP: significant attenuation
[3]; 10^-3M (10 nmol/10 μl) peptide intrathecal, 2% carrageenan 4 hours later, FIG. 9A
  rate of increase of paw sizes: significant decreases
[3]; 10^-3M intrathecal, carrageenan 4 hours later
  effects on paw size and withdrawal time compared with Spantide I: sustained to a greater extent than the effects of Spantide I
[4]
  inflammation reaction caused by the peptide: no inflammation reaction took place
[4]; 60 minutes after administration
  paw plantar size after administration of peptide alone: restored to near the basal (control) level
[4]; early after administration
  paw plantar size after administration of peptide alone: tentatively increased
[5]; 10^-3M (10 nmol/10 μl) peptide intrathecal, 10^-3M SP 30 minutes after peptide, FIG. 1
  number of scratching events induced by substance P, relative to control group (saline+SP = 100%): about 20%
[5]; 10^-3M peptide intrathecal, administration interval of 45 minutes, FIG. 1
  number of scratching events induced by substance P, relative to control group: almost the same effects were exhibited
[5]; Example 1, intervals of 4 hours, 8 hours, and 14 hours between peptide and SP, both 10^-3M
  suppressive effects on substance P-induced scratching behavior: significant suppressive effects
[5]; Example 2, FIG. 2, 10^-3M peptide, SP 4 hours after peptide, control about 380 scratching
  scratching behavior induced by substance P: almost never induced
[5]; Example 2, FIG. 2, 10^-3M peptide, interval 8 hours and then 14 hours
  suppressive effects on scratching as administration interval is prolonged: gradually attenuated
[5]; Example 3, FIG. 3, 10^-3M peptide, SP 4 hours after peptide, control 380 scratching
  scratching behavior induced by substance P / suppressive effects: almost never induced
